Assay results reported in the NIST ThermoML archive (doi:10.1016/j.jct.2011.02.012).
Numbers after ± are expanded uncertainties.

Test: activity coefficient (dimensionless); of the first substance listed, at infinite dilution; xn = mol fraction of the nth substance listed
Settings: Liquid, Chromatography, x1 = 0

Row | SMILES | activity coefficient (298.15 K) | activity coefficient (308.15 K) | activity coefficient (318.15 K) | activity coefficient (328.15 K) | activity coefficient (338.15 K) | activity coefficient (348.15 K) | activity coefficient (358.15 K)
1 | Cc1ccccc1C [1,2-dimethylbenzene] + CCn1cc[n+](C)c1.N#C[B-](C#N)(C#N)C#N | 2.17 ± 0.15 | 2.18 ± 0.15 | 2.2 ± 0.15 | 2.21 ± 0.15 | 2.22 ± 0.15 | 2.24 ± 0.15 | 2.25 ± 0.15
2 | Cc1cccc(C)c1 [1,3-dimethylbenzene] + CCn1cc[n+](C)c1.N#C[B-](C#N)(C#N)C#N | – | 2.56 ± 0.17 | 2.58 ± 0.18 | 2.6 ± 0.18 | 2.61 ± 0.18 | 2.63 ± 0.18 | 2.64 ± 0.18
3 | Cc1ccc(C)cc1 [1,4-dimethylbenzene] + CCn1cc[n+](C)c1.N#C[B-](C#N)(C#N)C#N | – | – | 2.45 ± 0.17 | 2.48 ± 0.17 | 2.5 ± 0.17 | 2.52 ± 0.17 | 2.54 ± 0.17
4 | C=CCCCCC [1-heptene] + CCn1cc[n+](C)c1.N#C[B-](C#N)(C#N)C#N | 22 ± 1.5 | 20.4 ± 1.4 | 19.3 ± 1.3 | 18.3 ± 1.3 | 17.3 ± 1.2 | 16.6 ± 1.1 | 15.7 ± 1.1
5 | C#CCCCCC [1-heptyne] + CCn1cc[n+](C)c1.N#C[B-](C#N)(C#N)C#N | 5.74 ± 0.39 | 5.66 ± 0.39 | 5.58 ± 0.38 | 5.51 ± 0.38 | 5.45 ± 0.37 | 5.39 ± 0.37 | 5.33 ± 0.36
6 | C#CCCCC [1-hexyne] + CCn1cc[n+](C)c1.N#C[B-](C#N)(C#N)C#N | 3.77 ± 0.26 | 3.76 ± 0.26 | 3.76 ± 0.26 | 3.75 ± 0.26 | 3.74 ± 0.25 | 3.74 ± 0.25 | 3.73 ± 0.25
7 | C#CCCCCCC [1-octyne] + CCn1cc[n+](C)c1.N#C[B-](C#N)(C#N)C#N | 8.66 ± 0.59 | 8.48 ± 0.58 | 8.31 ± 0.57 | 8.15 ± 0.56 | 7.99 ± 0.54 | 7.86 ± 0.54 | 7.73 ± 0.53
8 | C=CCCC [1-pentene] + CCn1cc[n+](C)c1.N#C[B-](C#N)(C#N)C#N | 9.24 ± 0.63 | 8.83 ± 0.6 | 8.56 ± 0.58 | 8.24 ± 0.56 | 7.97 ± 0.54 | 7.71 ± 0.53 | 7.52 ± 0.51
9 | CC(C)CC(C)(C)C [2,2,4-trimethylpentane] + CCn1cc[n+](C)c1.N#C[B-](C#N)(C#N)C#N | 60.3 ± 4.1 | 54.3 ± 3.7 | 50.4 ± 3.5 | 46.4 ± 3.2 | 42.3 ± 2.9 | 39.5 ± 2.7 | 36.7 ± 2.5
10 | CCCCC(C)=O [2-hexanone] + CCn1cc[n+](C)c1.N#C[B-](C#N)(C#N)C#N | – | 1.11 ± 0.07 | 1.12 ± 0.07 | 1.14 ± 0.07 | 1.16 ± 0.07 | 1.17 ± 0.07 | 1.09 ± 0.07
11 | CCC(C)(C)OC [2-methoxy-2-methylbutane] + CCn1cc[n+](C)c1.N#C[B-](C#N)(C#N)C#N | 4.15 ± 0.28 | 4.19 ± 0.29 | 4.22 ± 0.29 | 4.25 ± 0.29 | 4.28 ± 0.29 | 4.3 ± 0.29 | 4.32 ± 0.29
12 | COC(C)(C)C [2-methoxy-2-methylpropane] + CCn1cc[n+](C)c1.N#C[B-](C#N)(C#N)C#N | 2.82 ± 0.19 | 2.86 ± 0.19 | 2.9 ± 0.2 | 2.94 ± 0.2 | 2.97 ± 0.2 | 3.01 ± 0.2 | 3.04 ± 0.21
13 | CCCC(=O)CC [3-hexanone] + CCn1cc[n+](C)c1.N#C[B-](C#N)(C#N)C#N | – | 1.2 ± 0.08 | 1.22 ± 0.08 | 1.24 ± 0.08 | 1.25 ± 0.08 | 1.28 ± 0.08 | 1.17 ± 0.07
14 | CC(C)=O [acetone] + CCn1cc[n+](C)c1.N#C[B-](C#N)(C#N)C#N | – | 0.443 ± 0.036 | 0.454 ± 0.036 | 0.466 ± 0.036 | 0.475 ± 0.037 | 0.488 ± 0.037 | 0.43 ± 0.035
15 | c1ccccc1 [benzene] + CCn1cc[n+](C)c1.N#C[B-](C#N)(C#N)C#N | 1.13 ± 0.07 | 1.15 ± 0.07 | 1.17 ± 0.07 | 1.18 ± 0.08 | 1.19 ± 0.08 | 1.2 ± 0.08 | 1.21 ± 0.08
16 | CCCCO [butan-1-ol] + CCn1cc[n+](C)c1.N#C[B-](C#N)(C#N)C#N | 2.72 ± 0.19 | 2.41 ± 0.16 | 2.16 ± 0.15 | 1.95 ± 0.13 | 1.79 ± 0.12 | 1.65 ± 0.11 | 1.53 ± 0.1

Row | SMILES | activity coefficient (298.15 K) | activity coefficient (308.15 K) | activity coefficient (318.15 K) | activity coefficient (328.15 K) | activity coefficient (338.15 K) | activity coefficient (348.15 K) | activity coefficient (358.15 K)
17 | C1CCCCCC1 [cycloheptane] + CCn1cc[n+](C)c1.N#C[B-](C#N)(C#N)C#N | 21.9 ± 1.5 | 19.9 ± 1.4 | 18.6 ± 1.3 | 17 ± 1.2 | 15.8 ± 1.1 | 14.8 ± 1 | 13.9 ± 1
18 | C1CCCCC1 [cyclohexane] + CCn1cc[n+](C)c1.N#C[B-](C#N)(C#N)C#N | 16.7 ± 1.1 | 15.2 ± 1 | 14.3 ± 1 | 13.2 ± 0.9 | 12.3 ± 0.8 | 11.6 ± 0.8 | 10.9 ± 0.7
19 | C1=CCCCC1 [cyclohexene] + CCn1cc[n+](C)c1.N#C[B-](C#N)(C#N)C#N | 7.25 ± 0.49 | 6.92 ± 0.47 | 6.67 ± 0.45 | 6.44 ± 0.44 | 6.17 ± 0.42 | 6.01 ± 0.41 | 5.81 ± 0.4
20 | C1CCCCCCC1 [cyclooctane] + CCn1cc[n+](C)c1.N#C[B-](C#N)(C#N)C#N | 29.7 ± 2 | 26.6 ± 1.8 | 24.7 ± 1.7 | 22.5 ± 1.5 | 20.8 ± 1.4 | 19.2 ± 1.3 | 17.9 ± 1.2
21 | C1CCCC1 [cyclopentane] + CCn1cc[n+](C)c1.N#C[B-](C#N)(C#N)C#N | 10.7 ± 0.7 | 9.9 ± 0.7 | 9.5 ± 0.7 | 8.8 ± 0.6 | 8.4 ± 0.6 | 8 ± 0.5 | 7.6 ± 0.5
22 | CCCCCCCCCC [decane] + CCn1cc[n+](C)c1.N#C[B-](C#N)(C#N)C#N | 203 ± 14 | 177 ± 12 | 156 ± 11 | 137 ± 9 | 122 ± 8 | 108 ± 7 | 96.7 ± 6.6
23 | CCOCC [diethyl ether] + CCn1cc[n+](C)c1.N#C[B-](C#N)(C#N)C#N | 2.71 ± 0.18 | 2.72 ± 0.19 | 2.73 ± 0.19 | 2.74 ± 0.19 | 2.75 ± 0.19 | 2.76 ± 0.19 | 2.77 ± 0.19
24 | CCCOCCC [dipropyl ether] + CCn1cc[n+](C)c1.N#C[B-](C#N)(C#N)C#N | 8.54 ± 0.58 | 8.32 ± 0.57 | 8.07 ± 0.55 | 7.79 ± 0.53 | 7.6 ± 0.5 | 7.43 ± 0.51 | 7.24 ± 0.49
25 | CCO [ethanol] + CCn1cc[n+](C)c1.N#C[B-](C#N)(C#N)C#N | 1.58 ± 0.1 | 1.43 ± 0.09 | 1.32 ± 0.09 | 1.21 ± 0.08 | 1.13 ± 0.07 | 1.05 ± 0.07 | 0.986 ± 0.062
26 | CCc1ccccc1 [ethylbenzene] + CCn1cc[n+](C)c1.N#C[B-](C#N)(C#N)C#N | 2.6 ± 0.18 | 2.6 ± 0.18 | 2.61 ± 0.18 | 2.61 ± 0.18 | 2.61 ± 0.18 | 2.61 ± 0.18 | 2.61 ± 0.18
27 | CCCCCCC [heptane] + CCn1cc[n+](C)c1.N#C[B-](C#N)(C#N)C#N | 53.4 ± 3.7 | 47.9 ± 3.3 | 44.1 ± 3 | 39.9 ± 2.7 | 36.7 ± 2.5 | 34.3 ± 2.3 | 31.7 ± 2.2
28 | C=CCCCC [hex-1-ene] + CCn1cc[n+](C)c1.N#C[B-](C#N)(C#N)C#N | 14.4 ± 1 | 13.5 ± 0.9 | 12.9 ± 0.9 | 12.2 ± 0.8 | 11.6 ± 0.8 | 11.2 ± 0.8 | 10.6 ± 0.7
29 | CCCCCC [hexane] + CCn1cc[n+](C)c1.N#C[B-](C#N)(C#N)C#N | 33.8 ± 2.3 | 30.7 ± 2.1 | 28.9 ± 2 | 26.3 ± 1.8 | 24.5 ± 1.7 | 23.1 ± 1.6 | 21.8 ± 1.5
30 | CO [methanol] + CCn1cc[n+](C)c1.N#C[B-](C#N)(C#N)C#N | 1.1 ± 0.07 | 1.02 ± 0.06 | 0.948 ± 0.06 | 0.886 ± 0.056 | 0.835 ± 0.054 | 0.788 ± 0.051 | 0.748 ± 0.049
31 | CC1CCCCC1 [methylcyclohexane] + CCn1cc[n+](C)c1.N#C[B-](C#N)(C#N)C#N | 24.9 ± 1.7 | 22.7 ± 1.6 | 21.1 ± 1.4 | 19.4 ± 1.3 | 18 ± 1 | 16.9 ± 1.2 | 15.9 ± 1.1
32 | CCCCCCCCC [nonane] + CCn1cc[n+](C)c1.N#C[B-](C#N)(C#N)C#N | 131 ± 9 | 114 ± 8 | 102 ± 7 | 90.2 ± 6.2 | 81.1 ± 5.6 | 73.2 ± 5 | 66.3 ± 4.5
